Results as given in US20170182058A1, “TREATMENT OF RETT SYNDROME” (priority 2014, published 2017).
Like-named read-outs stand apart in the source and are kept apart here.

Key:
[1] = tested on: Mecp2 mice; experiment: respiratory function, plethysmograph; type: in vivo; conditions: IP or gavage, 0.1-20 mg/kg
Procedure: Respiratory function was monitored in a plethysmograph (EMKA Technologies) for 30 minutes prior to and 1 hour after drug administration (one set of mice received IP injections and one set of mice received oral gavage). [N=2 mice/group at each dose and each administration route; for the vehicle controls, N=6 WT/group; N=6 Mecp2/group]. Data were analyzed using repeated measures analysis of variance.

[2] = tested on: Mecp2 mice; experiment: locomotor activity, photobeam activity system; type: in vivo; conditions: 0.1-20 mg/kg
Procedure: Locomotor activity was monitored using methods described previously (Shaevitz et al. 2013 Genes Brain Behav. 12(7): 732-40. doi: […]). Mecp2 mutant males (between 1 and 3 months old) and females (between 3 and 6 months old) and age-matched controls were monitored for one-hour prior to and 12 hours after drug (or vehicle: 20% DMSO in saline) administration (one set of mice received IP injections and one set of mice received oral gavage) in doses that ranged from 0.1-20 mg/kg). Activity was measured across the 12-h dark cycle using a photobeam activity system (San Diego Instruments, San Diego, Calif., USA). Mice were placed individually into a cage (47×25×21 cm) inside a rectangular arena equipped with a 3×8 array of photobeams. The average number of ambulatory (two adjacent) and fine (repeated single) beam breaks per hour over the 12 h was compared. [N=2 mice/group at each dose and each administration route; for the vehicle controls, N=6 WT/group; N=6 Mecp2/group]. Data were analyzed using repeated measures analysis of variance.

[3] = tested on: mice; conditions: cited from earlier work; for adverse effects at high doses: 50-100 mg/kg
[4] = tested on: nicotinic receptors; experiment: neuronal electrophysiological activity via nicotinic receptors; conditions: galantamine positive allosteric modulatory site on nicotinic receptors
[5] = plasma stability; type: in vitro ADME; conditions: based on animal and in-vitro studies
[6] = tested on: mice; experiment: enhancement of learning in animals; type: in vivo; conditions: compared with galantamine
Excerpt: Potentiation of nicotinic receptors facilitates release of a number of different neurotransmitters including dopamine, glutamate, and GABA.

[7] = target: cholinesterase; conditions: cholinesterase inhibitor (Han et al 1991); cited from earlier work
[8] = tested on: female Mecp2 mice; experiment: novel object recognition (NOR) task; type: in vivo; conditions: Mecp2 females
Procedure: Cognitive function was assessed using the novel object recognition (NOR) task using methods previously described (Schaevitz et al. 2013). […] Novel object memory was assessed. during three sessions. This task relies on the innate tendency of a mouse to explore unfamiliar objects vs. familiar objects. Testing was performed in an open-field arena. Twenty-four hours prior to training, mice were habituated to the arena for 10 min. Ninety minutes before training, the mice were administered drug or vehicle (0.1, 0.5, 1.0, 2.5 and 5.0 mg/kg IP). During training, mice were given 10 min to explore two identical Lego Objects (A +A). Short- and long-term object memory were assessed in two subsequent sessions (24 h after the completion of training) during which mice were given 10 min to explore the familiar (A) or a novel (B or C) object. The duration of exploration (defined as the mouse's snout or forelimbs physically touching or approaching within 1 cm of an object) of familiar and novel objects was measured. The amount of time spent exploring the novel object over the total time exploring both novel and familiar objects in each session was used to measure object memory. [N==6/dose of 0.1, 0.5 and 1.0; N=1/dose of 2.5 and 5.0 mg/kg; for vehicle N=6 WT and N=6 Mecp2 mice.]
For the novel Objection recognition task data, we created a matrix of all wildtype and. Mecp2 females who were administered the vehicle and a second matrix comparing Mecp2 females with and without the drug (all doses combined).

[9] = tested on: CaCo-2 cells; experiment: in vitro permeability of a layer of CaCo-2 cells; type: in vitro ADME, human; conditions: based on in vitro CaCo-2 permeability
[10] = in vitro permeability of a layer of CaCo-2 cells; type: in vitro ADME, human; conditions: human, Caco-2; test conc 50 μM, assay duration 2 hr; read-out: mean A->B Papp (apparent permeability)
[11] = drug IP, all doses 0.1-5.0 mg/kg combined

SMILES | respiratory activity [1] | safety and tolerability ([2]; Mecp2 mice of both sexes and controls, from locomotor and respiratory tests) | locomotor activity ([2]; Mecp2 mice of either sex, IP or gavage) | ambulatory and fine motor movements ([2]; all doses tested, IP or oral gavage) | adverse effects at high doses ([3]; listed as Galantamine n-butylcarbamate) | adverse effects at high doses ([3]; listed as n-butylcarbamate) | lethality (no lethality up to dose) [3] | neuronal electrophysiological activity [4] | stability in plasma [5] | enhancing learning [6] | IC50 [7] | NOR scores = or below 0.5 (share of mice that did not learn) [8, 11] | NOR scores above 0.5 (share of mice that learned) [8, 11] | NOR task performance versus vehicle ([8]; Chi square p = 0.0321) | predicted oral bioavailability [9] | Papp A→B at 2 hr, 50 μM [10]
CCCCNC(=O)O[C@H]1C=C[C@@]23CCN(C)Cc4ccc(OC)c(c42)O[C@H]3C1 [galantamine n-butylcarbamate] | did not affect respiratory activity | safe and well tolerated | did not impair locomotor activity | not significant altered | affects cardiac and motor functions | wobbly and off-balance with rapid heart rate still present at 4 hours, but were recovered at 24 hours | > 100 mg/kg | enhances neuronal electrophysiological activity | stable in plasma | effective in enhancing learning at lower doses than galantamine | 1090 nM | 65% | 35% | improves memory for a novel object and cognitive performance | 80% | 20.8 ×10⁻⁶ cm/s
CNC(=C[N+](=O)[O-])NCCSCc1ccc(CN(C)C)o1 [Ranitidine, reference compound] | – | – | – | – | – | – | – | – | – | – | – | – | – | – | – | 1.1 ×10⁻⁶ cm/s
CC(=O)CC(c1ccccc1)c1c(O)c2ccccc2oc1=O (stereo not drawn) [Warfarin, reference compound] | – | – | – | – | – | – | – | – | – | – | – | – | – | – | – | 34.7 ×10⁻⁶ cm/s
